# Test results published in patent US20190373936A1, “COMPOSITION, METHOD FOR PRODUCING THE SAME AND USE THEREOF” (INFINITUS (CHINA) COMPANY LTD., priority 2018, published 2019).
# How the values were obtained:
# [1] = tested on: SD rats of combined hyperlipidemia model; assay: Function of facilitating lowering blood lipid: serum lipid indexes by ELISA in combined hyperlipidemia SD rat model; type: in vivo
# Description: (§1) In the present disclosure, reference was made to the method for testing the function of facilitating lowering blood-lipid in the Technical specification for health care food inspection and evaluation (2012 Updated Edition). SPF grade male SD rats were used as experimental animals. After the adaption period, an animal model of the combined hyperlipidemia was established, and the rats were randomly divided into groups according to TC level. Three dosage groups were continuously administered with the composition provided by the present disclosure by gavage at a dosage of 500 mg/kg·BW (equaled to 5 times of recommendation amount for human), 1000 mg/kg·BW (equaled to 10 times of recommendation amount for human) and 2500 mg/kg·BW (equaled to 25 times of recommendation amount for human), respectively. The blank control group and the model control group were administered with the same volume of distilled water by gavage. Each group was weighed regularly. 30 days after the administration, blood samples were collected without fasting, and levels of TC, TG, HDL-C, LDL-C, ox-HDL, ox-LDL, apo-A1 and apo-β were tested.
# Name: SPF grade male SD rats, body weight 170˜220 g
# High-fat diet: maintenance diet with 20.0% sucrose, 15% lard, 1.2% cholesterol, 0.2% sodium cholate, appropriate amounts of casein, calcium hydrogen phosphate, rock powders and so on. Except for crude fat, water content, crude protein, crude fat, crude fiber, ash, calcium, phosphate and calcium:phosphate ratio reached the national standard for maintenance diet.
# Surgical instruments, centrifuges, centrifuge tubes, electronic balances, punchers, gavage needles, enzyme-labeled instruments, heparin sodium, anesthetic, formalin, refrigerators, vortex mixer, weighing scale, serum total cholesterol (TC) ELISA kit, serum triglyceride (TG) ELISA kit, serum high-density lipoprotein cholesterol (HDL-C) ELISA kit, serum low-density lipoprotein cholesterol (LDL-C) ELISA kit, serum oxidized high-density lipoprotein cholesterol (ox-HDL-C) ELISA kit, serum oxidized low-density lipoprotein cholesterol (ox-LDL-C) ELISA kit, serum apolipoprotein A1 (apo-A1) ELISA kit, and serum apolipoprotein (apo-β) ELISA kit.
# There were three dosage groups, two positive control groups, one blank control group and one model control group. In low-dosage group, the test sample was administered at a dosage of 5 times of the recommendation amount for human (500 mg/kg), and in middle-dosage and high-dosage groups, the dosages equaled to 10 times (1000 mg/kg) and 25 times (2500 mg/kg) of the recommendation amount for human. The dosage of the positive control group equaled to 5 times (omega: 150 mg/kg; and atorvastatin calcium: 0.83 mg/kg) of the recommendation amount for human. The blank control group and the model control group were administered with equal amount of distilled water at the same volume by gavage. The duration of the administration of the test sample was generally 30 days.
# The compositions provided by the examples 1˜3, the powder formulations provided by the examples 4˜6 were accurately weighed, and an appropriate amount of distilled water was added to prepare the low-, middle- and high-dosages samples. The samples were prepared right before use.
# (1) Adaptive period: In a barrier system, the rats were fed on maintenance diet and observed for 5˜7 days.
# The rats were randomly divided into 22 groups, 6 per group. One group was fed on the maintenance diet as the blank control group. The other 21 groups were fed on high-fat diet as the model control group. The rats were weighed once a week.
# 20 days after the model control group was fed on high-fat diet, rats in the blank control group and the model control groups were subjected to blood collection (1˜1.5 mL of blood was collected from the tail vein) without fasting. After blood collection, the serum was quickly separated to a new centrifugal tube, stored at −20° C. before test. […]
# [2] = Body weight of SD rats fed high-fat diet during administration of test sample; type: in vivo; settings: positive control groups (omega 150 mg/kg; atorvastatin calcium 0.83 mg/kg), 30 days
# Description: as §1, with “The blank control group and the model control group were administered with the same volume of distilled water by gavage. Each group was weighed regularly. 30 days after the administration, blood samples were collected without fasting, and levels of TC, TG, HDL-C, LDL-C, ox-HDL, ox-LDL, apo-A1 and apo-β were tested.” left out
# After grouping, each dosage group was orally administered with the test sample every day, the two positive groups were respectively orally administered with positive control samples (diluted Omega solution and diluted atorvastatin calcium solution), and the blank control group and the model control group were administered with the same volume of distilled water. […] After blood collection, the serum was quickly separated, and levels of TC, TG, HDL-C, LDL-C, ox-HDL-C, ox-LDL-C, apo-A1 and apo-β in serum were measured.
# [3] = positive control groups (omega 150 mg/kg; atorvastatin calcium 0.83 mg/kg), 30 days
structure (smiles),measurement,setting,value
"CC(C)c1c(C(=O)Nc2ccccc2)c(-c2ccccc2)c(-c2ccc(F)cc2)n1CC[C@@H](O)C[C@@H](O)CC(=O)[O-].CC(C)c1c(C(=O)Nc2ccccc2)c(-c2ccccc2)c(-c2ccc(F)cc2)n1CC[C@@H](O)C[C@@H](O)CC(=O)[O-].[Ca+2] [Atorvastatin Calcium, atorvastatin calcium]",Effect on Apo-β content in serum of SD rats,[1]; compared with the model control group,decreased
same,Apo-A1 levels in serum (Mean Value ± Standard Deviation),[1]; [3],2693.75 ± 435.48 µg/mL
same,Apo-β levels in serum (Mean Value ± Standard Deviation),[1]; [3],735.00 ± 264.71 µg/mL
same,HDL-C levels in serum (Mean Value ± Standard Deviation),[1]; [3],919.74 ± 150.63 µmol/L
same,LDL-C levels in serum (Mean Value ± Standard Deviation),[1]; [3],853.24 ± 235.19 µmol/L
same,Ox-HDL-C levels in serum (Mean Value ± Standard Deviation),[1]; [3],35.88 ± 7.30 µg/L
same,Ox-LDL-C levels in serum (Mean Value ± Standard Deviation),[1]; [3],45.44 ± 7.40 µg/L
same,TC levels in serum (Mean Value ± Standard Deviation),[1]; [3],1117.14 ± 171.07 µmol/L
same,TG levels in serum (Mean Value ± Standard Deviation),[1]; [3],189.71 ± 45.83 µmol/L
same,Final Weight (Mean Value ± Standard Deviation),[2],442.00 ± 40.77
